Data from ChEMBL document CHEMBL1201862, “PubChem BioAssay data set” (2004).
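A five-concentration, 48-hour dose response in 96-well plates underlies each endpoint, interpolated linearly between surrounding concentrations. GI50 marks 50% less growth.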 Calls of active or inactive are those of the source. No stated cut-off is given here; in the data, active = GI50 up to about 1.1 µM and inactive = higher.

Legend:
Assay in all cases: inhibition of tumour cell growth, NCI panel, 48 h
HOP-62 = system: HOP-62
Hs-578T = system: Hs-578T
Malme-3M = system: Malme-3M
NCI-H460 = system: NCI-H460
786-0 = system: 786-0
LOX IMVI = system: LOX IMVI
K562 = system: K562
SNB-19 = system: SNB-19
NCI-H226 = system: NCI-H226
SF-268 = system: SF-268
CAKI-1 = system: CAKI-1
ACHN = system: ACHN
SF-539 = system: SF-539
RXF 393 = system: RXF 393
SK-MEL-5 = system: SK-MEL-5
MDA-N = system: MDA-N
NCI-H522 = system: NCI-H522
BT-549 = system: BT-549
UACC-62 = system: UACC-62

Structure (SMILES): O=C(Nc1nc(C23CC4CC(CC(C4)C2)C3)cs1)c1cc2cc(Cl)ccc2oc1=O
- GI50 (HOP-62): > 100 µM (inactive)
- GI50 (Hs-578T): 71.1 µM (inactive)
- GI50 (Malme-3M): > 100 µM (inactive)
- GI50 (NCI-H460): > 100 µM (inactive)
- GI50 (786-0): > 100 µM (inactive)
- GI50 (LOX IMVI): > 100 µM (inactive)
- GI50 (K562): > 100 µM (inactive)
- GI50 (SNB-19): > 100 µM (inactive)
- GI50 (NCI-H226): > 100 µM (inactive)
- GI50 (SF-268): > 10 µM (inactive)
- GI50 (CAKI-1): > 100 µM (inactive)
- GI50 (ACHN): > 100 µM (inactive)
- GI50 (SF-539): > 100 µM (inactive)
- GI50 (RXF 393): > 100 µM (inactive)
- GI50 (SK-MEL-5): > 100 µM (inactive)
- GI50 (MDA-N): > 100 µM (inactive)
- GI50 (NCI-H522): > 100 µM (inactive)

Structure (SMILES): O=C(Cc1csc(N/N=C2\C(=O)Nc3ccccc32)n1)Nc1ccccc1
- GI50 (HOP-62): 18.1 µM (inactive)
- GI50 (BT-549): 41.7 µM (inactive)
- GI50 (NCI-H460): 31.6 µM (inactive)
- GI50 (786-0): 17.7 µM (inactive)
- GI50 (LOX IMVI): 46.5 µM (inactive)
- GI50 (SNB-19): 26.9 µM (inactive)
- GI50 (NCI-H226): 10 µM (inactive)
- GI50 (SF-268): 17.7 µM (inactive)
- GI50 (CAKI-1): 23.3 µM (inactive)
- GI50 (ACHN): 21.6 µM (inactive)
- GI50 (SF-539): 26.4 µM (inactive)
- GI50 (RXF 393): 62.7 µM (inactive)
- GI50 (SK-MEL-5): 15.3 µM (inactive)

Structure (SMILES): Cn1c(=N)n[n+]([O-])c2ccccc21
- GI50 (HOP-62): 2.45 µM (inactive)
- GI50 (BT-549): 1.87 µM (inactive)
- GI50 (786-0): 4.24 µM (inactive)
- GI50 (LOX IMVI): 1.62 µM (inactive)
- GI50 (K562): 1.59 µM (inactive)
- GI50 (UACC-62): 1.09 µM (active)
- GI50 (NCI-H226): 6.98 µM (inactive)
- GI50 (CAKI-1): 2.49 µM (inactive)
- GI50 (ACHN): 4.9 µM (inactive)
- GI50 (SF-539): 1.99 µM (inactive)
- GI50 (SK-MEL-5): 1.83 µM (inactive)
- GI50 (MDA-N): 1.9 µM (inactive)
- GI50 (NCI-H522): 3.72 µM (inactive)

Structure (SMILES): CCCCCC(=O)NC(=S)Nc1nnn[nH]1
- GI50 (HOP-62): > 100 µM (inactive)
- GI50 (Hs-578T): > 100 µM (inactive)
- GI50 (Malme-3M): > 100 µM (inactive)
- GI50 (NCI-H460): > 100 µM (inactive)
- GI50 (786-0): > 100 µM (inactive)
- GI50 (LOX IMVI): > 100 µM (inactive)
- GI50 (K562): > 100 µM (inactive)
- GI50 (SNB-19): > 100 µM (inactive)
- GI50 (UACC-62): > 100 µM (inactive)
- GI50 (SF-268): > 100 µM (inactive)
- GI50 (CAKI-1): > 100 µM (inactive)
- GI50 (ACHN): > 10 µM (inactive)
- GI50 (SF-539): > 100 µM (inactive)
- GI50 (RXF 393): > 100 µM (inactive)
- GI50 (SK-MEL-5): > 100 µM (inactive)
- GI50 (MDA-N): > 100 µM (inactive)
- GI50 (NCI-H522): > 100 µM (inactive)

Structure (SMILES): N#Cc1ccccc1C#C/C=C\C#Cc1ccccn1
- GI50 (HOP-62): 19 µM (inactive)
- GI50 (Hs-578T): 16.4 µM (inactive)
- GI50 (Malme-3M): 19.3 µM (inactive)
- GI50 (NCI-H460): 20.4 µM (inactive)
- GI50 (786-0): 20.3 µM (inactive)
- GI50 (SNB-19): 25.9 µM (inactive)
- GI50 (UACC-62): 15.3 µM (inactive)
- GI50 (SF-268): 16.1 µM (inactive)
- GI50 (CAKI-1): 21.8 µM (inactive)
- GI50 (ACHN): 29.6 µM (inactive)
- GI50 (SF-539): 20.5 µM (inactive)
- GI50 (RXF 393): 14.1 µM (inactive)
- GI50 (SK-MEL-5): 2.99 µM (inactive)

Structure (SMILES): c1ccc(CSC(SCc2ccccc2)c2ccc3c(c2)OCO3)cc1
- GI50 (HOP-62): > 10 µM (inactive)
- GI50 (Hs-578T): > 10 µM (inactive)
- GI50 (Malme-3M): > 10 µM (inactive)
- GI50 (NCI-H460): > 10 µM (inactive)
- GI50 (786-0): > 10 µM (inactive)
- GI50 (LOX IMVI): > 10 µM (inactive)
- GI50 (K562): > 10 µM (inactive)
- GI50 (SNB-19): > 10 µM (inactive)
- GI50 (UACC-62): > 10 µM (inactive)
- GI50 (NCI-H226): > 10 µM (inactive)
- GI50 (SF-268): > 10 µM (inactive)
- GI50 (CAKI-1): > 10 µM (inactive)
- GI50 (ACHN): > 10 µM (inactive)
- GI50 (SF-539): > 10 µM (inactive)
- GI50 (RXF 393): > 10 µM (inactive)
- GI50 (SK-MEL-5): > 10 µM (inactive)
- GI50 (MDA-N): > 10 µM (inactive)
- GI50 (NCI-H522): > 10 µM (inactive)

Structure (SMILES): CC(C)N1CN(c2ccccc2)C2(CCN(CCCC(=O)c3ccc(F)cc3)CC2)C1=O
- GI50 (HOP-62): 3.7 µM (inactive)
- GI50 (Hs-578T): 16.1 µM (inactive)
- GI50 (Malme-3M): 14.7 µM (inactive)
- GI50 (NCI-H460): 21.1 µM (inactive)
- GI50 (786-0): 6.9 µM (inactive)
- GI50 (LOX IMVI): 7.1 µM (inactive)
- GI50 (K562): 25.6 µM (inactive)
- GI50 (SNB-19): 12.7 µM (inactive)
- GI50 (UACC-62): 17.9 µM (inactive)
- GI50 (NCI-H226): 6.64 µM (inactive)
- GI50 (SF-268): 6.7 µM (inactive)
- GI50 (CAKI-1): 4.13 µM (inactive)
- GI50 (ACHN): 3.9 µM (inactive)
- GI50 (SF-539): 9.55 µM (inactive)
- GI50 (RXF 393): 28.4 µM (inactive)
- GI50 (SK-MEL-5): 2.55 µM (inactive)
- GI50 (MDA-N): 14.9 µM (inactive)
- GI50 (NCI-H522): 21 µM (inactive)
